Source: patent publication US11390631B1, “Benzodiazepine derivatives as RSV inhibitors” (priority 2015, dated 2022)
Like-named read-outs stand apart in the source and are kept apart here.

Tested on: Human RSV-A (“Long” strain)
Experiment: RSV-A assay: inhibition of cytopathic effect in Hep-2 cells, ATPlite readout
Assay type: cell-based, Human respiratory syncytial virus (HRSV)
Conditions: read-out: Human RSV-A (“Long” strain) EC50
Description: Hep-2 cells, (originally derived from tumors grown in irradiated-cortisonised weanling rats that had been injected with epidermoid carcinoma tissue from a person's larynx, but later found to be indistinguishable from HeLa cells by PCR DNA analysis), were used for the culturing of genotype A, “Long” strain RSV. Flasks were inoculated with RSV and viral stocks were collected once cytopathic effect (CPE) was greater than 90%. Viral stocks in 25% sucrose media were snap frozen using liquid nitrogen to increase viral stability. Viral stock titers were quantified by tissue culture infectious dose 50% (TCID50) using 8,000 cells per well and 3-fold viral dilutions across a 96-well plate, cultured for 4 days. Viral stock titers were also quantified by a plaque forming unit assay, as described elsewhere.
Following extensive parameter testing, the final assay is run as follows: Hep-2 cells are seeded into the inner 60 wells of a 96-well plate at 8,000 cells per well in a volume of 50 μL using Growth Media (DMEM without phenol red, 1% L-Glut, 1% Penn/Strep, 1% nonessential amino acids, 10% heat-inactivated FBS). 2-fold serial dilutions of control and test compounds are added to the wells in duplicate in a total volume of 25 μL. Viral stock is then added to the wells at a multiplicity of infection (MOI) of 0.1 in a volume of 25 μL, bringing the total volume of each well to 100 μL. The MOI is calculated using the PFU/mL, or TCID50 if unavailable. Each 96-well plate has a control column of 6 wells with cells and virus but no compound (negative control, max CPE), a column with cells but no compound or virus (positive control, minimum CPE), and a column with no cells or virus or compound (background plate/reagent control). The control wells with cells but no virus are given an additional 25 uL of growth media containing an equal quantity of sucrose as those wells receiving the viral stock in order to keep consistent in media and volume conditions. The outer wells of the plate are filled with 125 μL of moat media (DMEM, 1% Penn/Strep) to act as a thermal and evaporative moat around the test wells. Following a 5-day incubation period, the plates are read using ATPlite (50 uL added per well), which quantifies the amount of ATP (a measure of cell health) present in each well. Assay plates are read using the Envision luminometer. In parallel, cytotoxicity is examined on an additional 96-well plate treated in an identical manner, but substituting the 25 μL of viral stock for 25 μL of growth media. […] EC50 ranges are as follows: A<0.4 μM; B 0.4-0.8 μM; C>0.8 μM and CC50 ranges are as follows: A>50 μM; B 10-50 μM; C<10 μM.

[1] = human respiratory syncytial virus, HEp-2, 120 h
[2] = Hep-2 cells, MOI 0.1, 5-day incubation, ATPlite

Row | SMILES | EC50 [1] [nM] | EC50 [2] [nM]
1 | CCOC1(c2nc(-c3nnc(N[C@H]4N=C(c5ccccc5)c5ccccc5NC4=O)o3)c(N3CCOCC3)s2)CCC1 [Example 458] | < 400 | –
2 | N#Cc1ccc(-c2nnc(NC3N=C(c4ccccc4)c4ccccc4NC3=O)[nH]2)cc1 (stereo not shown) [Example 365] | 400 to 800 | –
3 | O=C1Nc2ccccc2C(c2ccccc2)=N[C@@H]1Nc1nnc(-c2nc(-c3ccc(F)cc3)sc2N2CCOCC2)o1 [Example 428] | < 400 | –
4 | O=C1Nc2ccccc2C(c2ccccc2)=NC1Nc1ncc(-c2ccc(Br)cc2)o1 (stereo not shown) [Example 370] | > 800 | –
5 | COCCn1c(-c2nnc(N[C@H]3N=C(c4ccccc4)c4ccccc4NC3=O)o2)nc2ccccc21 [Example 298] | > 800 | –
6 | O=C1Nc2ccccc2C(c2ccccc2)=N[C@@H]1Nc1nnc(-c2ncc(C(F)(F)F)cc2NCc2ccco2)o1 [Example 421] | > 800 | –
7 | O=C1Nc2ccccc2C(c2ccccc2)=NC1Nc1noc(-c2ccccc2)n1 (stereo not shown) [Example 91] | > 800 | –
8 | O=C1Nc2ccccc2C(c2ccccc2)=NC1Nc1nnc(-c2ccc(F)cc2)[nH]1 (stereo not shown) [Example 363] | > 800 | –
9 | C[C@@H]1COCCN1c1cc(C(F)(F)F)cnc1-c1nnc(N[C@H]2N=C(c3ccccc3)c3ccccc3NC2=O)o1 [Example 294] | < 400 | –
10 | O=C1Nc2ccccc2C(c2ccccc2)=NC1Nc1nnc(-c2ncc(N3CCOCC3)cc2Cl)o1 (stereo not shown) [Example 135] | > 800 | –
11 | O=C1Nc2ccccc2C(c2ccccc2)=NC1Nc1nnc(C2CCC2)o1 (stereo not shown) [Example 196] | > 800 | –
12 | O=C1Nc2ccccc2C(c2ccccc2)=N[C@@H]1Nc1nnc(-c2ncc(C(F)(F)F)cc2NC[C@H]2CCCO2)o1 [Example 420] | < 400 | –
13 | O=C1Nc2ccccc2C(c2ccccc2)=N[C@@H]1Nc1nnc(-c2ncc(F)cc2N2CC3CCC(C2)O3)o1 [Example 299] | < 400 | –
14 | N#Cc1cnc(-c2nnc(N[C@H]3N=C(c4ccccc4)c4cccc(F)c4NC3=O)o2)c(N2CCOCC2)c1 [Example 361] | < 400 | –
15 | COc1ccc2nccc(-c3nnc(N[C@H]4N=C(c5ccccc5)c5ccccc5NC4=O)o3)c2c1 [Example 408] | > 800 | –
16 | O=C1Nc2ccccc2C(c2ccccc2)=N[C@@H]1Nc1nnc(-c2ccc(N3CCOCC3)cc2F)o1 [Example 126a] | < 400 | –
17 | N#Cc1ccc(-c2nnc(N[C@H]3N=C(c4ccccc4)c4ccccc4NC3=O)o2)c(N2C3CCC2COC3)c1 [Example 289] | < 400 | –
18 | CC1(Nc2cc(C(F)(F)F)cnc2-c2nnc(N[C@H]3N=C(c4ccccc4)c4ccccc4NC3=O)o2)CCOC1 (stereo partly shown) [Example 424] | > 800 | –
19 | C#Cc1nc(-c2nnc(N[C@H]3N=C(c4ccccc4)c4ccccc4NC3=O)o2)c(N2CCOCC2)s1 [Example 406] | < 400 | –
20 | N#Cc1cccc(C2=NC(Nc3nnc(-c4ccc(F)cc4)o3)C(=O)Nc3ccccc32)c1 (stereo not shown) [Example 381] | > 800 | –
21 | O=C1Nc2ccccc2C(c2ccccc2)=NC1Nc1nnc(-c2ccc(-n3ccnc3)cc2)o1 (stereo not shown) [Example 231] | < 400 | –
22 | N#CCNc1cc(C(F)(F)F)cnc1-c1nnc(N[C@H]2N=C(c3ccccc3)c3ccccc3NC2=O)o1 [Example 331] | > 800 | –
23 | COCCn1nccc1-c1nnc(N[C@H]2N=C(c3ccccc3)c3ccccc3NC2=O)o1 [Example 310] | > 800 | –
24 | O=C1Nc2ccccc2C(c2ccccc2)=N[C@@H]1Nc1nnc(-c2ncsc2C2=CCOCC2)o1 [Example 347] | < 400 | –
25 | O=C1Nc2ccccc2C(c2ccccc2)=N[C@@H]1Nc1nnc(-c2ncc(C(F)(F)F)cc2C2CC2)o1 [Example 293] | > 800 | –
26 | O=C1Nc2ccccc2C(c2ccccc2)=N[C@H]1Nc1nnc(-c2nc(C(F)(F)F)sc2N2CCO[C@@H]3C[C@@H]32)o1 (single isomer, unassigned) [Example 487] | – | > 800

Row | SMILES | EC50 [1] [nM] | EC50 [2] [nM]
27 | C[C@@H]1CN(c2cc(C#N)cnc2-c2nnc(N[C@H]3N=C(c4ccccc4)c4ccccc4NC3=O)o2)CCO1 [Example 326] | 400 to 800 | –
28 | O=C1Nc2ccccc2C(c2ccccc2)=N[C@@H]1Nc1nnc(-c2cn(CC(F)(F)F)nc2N2CCOCC2)o1 [Example 488] | – | < 400
29 | O=C1Nc2ccccc2C(c2ccccc2)=NC1Nc1nnc(-c2ncc(C(F)(F)F)cc2CCO)o1 (stereo not shown) [Example 450] | > 800 | –
30 | Cc1nsc(N2CCOCC2)c1-c1nnc(N[C@H]2N=C(c3ccccc3)c3ccccc3NC2=O)o1 [Example 465] | 400 to 800 | –
31 | COCCOc1ccccc1-c1nnc(NC2N=C(c3ccccc3)c3ccccc3NC2=O)o1 (stereo not shown) [Example 229] | > 800 | –
32 | O=C1Nc2ccccc2C(c2ccccc2)=N[C@@H]1Nc1ncc(-c2ncc(C(F)(F)F)cc2N2CCOCC2)o1 [Example 442] | – | < 400
33 | O=C1Nc2ccccc2C(c2ccccc2)=N[C@@H]1Nc1nnc(-c2cc(C3CC3)sc2N2CCOCC2)o1 [Example 384] | < 400 | –
34 | O=C1Nc2ccccc2C(c2ccccc2)=NC1Nc1nnc(-c2ccc(OC3CCOCC3)cc2)o1 (stereo not shown) [Example 220] | > 800 | –
35 | O=C1Nc2ccccc2C(c2ccccc2)=NC1Nc1nnc(C23CCN(CC2)CC3)o1 (stereo not shown) [Example 287] | > 800 | –
36 | COC[C@H]1C[C@@H]1c1sc(C(F)(F)F)nc1-c1nnc(N[C@H]2N=C(c3ccccc3)c3ccccc3NC2=O)o1 [Example 395] | – | > 800
37 | O=C1Nc2ccccc2C(c2ccccc2)=N[C@@H]1Nc1nnc(-c2cn(-c3ccc(C(F)(F)F)nc3)nc2N2CCOCC2)o1 [Example 444] | – | < 400
38 | O=C1Nc2ccccc2C(c2ccccc2)=NC1Nc1nnc(CCc2ccccc2)o1 (stereo not shown) [Example 199] | > 800 | –
39 | N#Cc1ccc(-c2nnc(NC3N=C(c4ccccc4)c4ccccc4NC3=O)o2)s1 (stereo not shown) [Example 183] | < 400 | –
40 | CCc1nc(N2CCOCC2)c(-c2nnc(N[C@H]3N=C(c4ccccc4)c4ccccc4NC3=O)o2)cc1C#N [Example 176] | < 400 | –
41 | COCC1(Nc2cc(C(F)(F)F)cnc2-c2nnc(N[C@H]3N=C(c4ccccc4)c4ccccc4NC3=O)o2)CC1 [Example 415] | > 800 | –
42 | O=C1Nc2ccccc2C(c2ccccc2F)=NC1Nc1nnc(-c2ccc(F)cc2)o1 (stereo not shown) [Example 379] | > 800 | –
43 | O=C1Nc2ccccc2C(c2ccccc2)=N[C@@H]1Nc1nnc(-c2nc(-c3ccc(F)cn3)sc2N2CCOCC2)o1 [Example 389] | < 400 | –
44 | O=C1Nc2ccccc2C(c2ccccc2)=N[C@@H]1Nc1nnc(-c2ncc(C(F)(F)F)cc2N[C@H]2CCOC2)o1 [Example 470] | > 800 | –
45 | N#Cc1ccc(-c2nnc(N[C@H]3N=C(c4ccccc4)c4ccccc4NC3=O)o2)c(N2CC3CCC(C2)O3)c1 [Example 281] | < 400 | –
46 | O=C1Nc2ccccc2C(c2ccccc2)=N[C@@H]1Nc1nnc(-c2ccc(C3CC3)nc2N2CCOCC2)o1 [Example 154] | < 400 | –
47 | N#Cc1ccc2nccc(-c3nnc(N[C@H]4N=C(c5ccccc5)c5ccccc5NC4=O)o3)c2c1 [Example 435] | > 800 | –
48 | O=C1Nc2ccccc2C(c2ccccc2)=N[C@@H]1Nc1nnc(-c2nc(C(F)(F)F)sc2C2=CCOCC2)o1 [Example 453] | < 400 | –
49 | O=C1Nc2ccccc2C(c2ccccc2)=NC1Nc1nnc(-c2cc(C(F)(F)F)cnc2N2CCOCC2)o1 (stereo not shown) [Example 146] | > 800 | –
50 | COCCNc1ccc(-c2nnc(NC3N=C(c4ccccc4)c4ccccc4NC3=O)o2)cc1 (stereo not shown) [Example 117] | > 800 | –
51 | C[C@@H]1COCCN1c1cc(C#N)ccc1-c1nnc(N[C@H]2N=C(c3ccccc3)c3ccccc3NC2=O)o1 [Example 285] | < 400 | –
52 | N#Cc1cnc(-c2nnc(N[C@H]3N=C(c4ccccc4)c4ccccc4NC3=O)o2)c(N2C3CCC2COC3)c1 [Example 333] | 400 to 800 | –
